Experimental findings from patent publication US5173493A, “Pyridoindole derivatives and processes for preparation thereof” (Fujisawa Pharmaceutical Company, Ltd., priority 1988, dated 1992) are described below.

Assay [1] deals with Cisplatin-induced vomiting. Description: Inhibition of Cisplatin-induced vomiting. The class given is in vivo, female beagles. Conditions: Canis lupus familiaris; intravenously twice, 10 minutes prior to and 90 minutes after Cisplatin (3.2 mg/kg, iv); observed up to 5 hours. As to the method:
(B) Inhibition of Cisplatin-induced vomiting
Nonfasted female beagles weighing about 10 kg were administered test compound or saline intravenously twice 10 minutes prior to and 90 minutes after Cisplatin dosing (3.2 mg/kg, iv).
Cisplatin was dissolved in 0.9% warm saline with a final concentration of 3 mg/ml and used immediately.

The subject of another assay is Benzold-Jarisch reflex. Briefly: Inhibition of Benzold-Jarisch reflex. It is filed as in vivo, Male Sprague-Dawley rats. The settings on record: Rattus norvegicus, 5 min, iv.
The mark [2] stands for this setting: inhibition of bradycardic response to 2-methyl-5-hydroxytryptamine (32 μg/kg, iv), anesthetized rats, read-out: ED50.

Where two headings read alike, the source gives them in different places.

Procedure for Benzold-Jarisch reflex: (A) Inhibition of Benzold-Jarisch reflex
Male Sprague-Dawley rats weighing 260-350 g were anesthetized intraperitoneally with 1.25 g/kg urethane.
Blood pressure and heart rate were monitored continuously from the left common carotid artery with a pressure transducer. A right femoral vein was connulated for the intravenous injection (iv) of drugs. The trachea was also connulated to ease the respiration.
Rats were given a rapid bolus injection of 2-methyl-5-hydroxytryptamine (32 μg/kg, iv) to establish the control bradycardic response. Once the heart rate returned to base line, the rats were given the test compound (iv), followed by 5-minutes interval and another bolus injection of 2-methyl-5-hydroxytryptamine (32 μg/kg, iv).

Regarding `Cc1[nH]cnc1CC1CCc2c(C)c3ccccc3n2C1=O.Cl` (single isomer, unassigned; (+)) [Compound 3, (+)-8,9-Dihydro-10-methyl-7-[(5-methyl-1H-imidazol-4-yl)methyl]pyrido[1,2-a]indol-6(7H)-one hydrochloride], the 50% effective dose (ED50) (as a rule, the dose at which the effect has come halfway, by size or by number of responders) in assay [1] turned out to be 1.1 µg/kg; in the assay on Benzold-Jarisch reflex (setting [2]), 0.9 µg/kg.

`Cc1[nH]cnc1C(O)C1CCc2c(C)c3ccccc3n2C1=O.O=C(O)/C=C\C(=O)O` (single isomer, unassigned; isomer b) [Compound 1, 8,9-Dihydro-7-[(hydroxy)(5-methyl-1H-imidazol-4-yl)methyl]-10-methylpyrido[1,2-a]indol-6(7H)-one maleate (isomer B)]: the ED50 with Benzold-Jarisch reflex (setting [2]) amounted to 5.9 µg/kg. Compound `Cc1c2n(c3ccccc13)C(=O)C(Cc1c[nH]cn1)CC2` (centres unmarked) [Compound 2, 8,9-Dihydro-7-[(1H-imidazol-4-yl)methyl]-10-methylpyrido[1,2-a]indol-6(7H)-one] showed a median effective dose (ED50) in the assay with Benzold-Jarisch reflex of 1.8 µg/kg. As to `Cc1[nH]cnc1CC1(C)CCc2c(C)c3ccccc3n2C1=O` (centres unmarked) [Compound 4, 8,9-Dihydro-7,10-dimethyl-7-[(5-methyl-1H-imidazol-4-yl)methyl]pyrido[1,2-a]indol-6(7H)-one], the ED50 in the assay with Benzold-Jarisch reflex (setting [2]) amounted to 1.1 µg/kg.
